Measurements taken from patent publication US9758485B2, “Compounds for controlling arthropods” (priority 2013, dated 2017).

System: not listed separately
Test: logP determination by HPLC on a reversed-phase column (C18), EEC Directive 79/831 Annex V.A8
Assay type: physicochemical
Conditions: HPLC-MS method a), Table I-T3

| Compound | logP^a) |
| --- | --- |
| O=C(NC1CC1)c1cc(-c2cnn(-c3c(Cl)cc(OC(F)(F)F)cc3Cl)c2)ccc1Cl [I-T3-88] | 3.6 |
| O=C(NC1CC1)c1cc(-c2cnn(-c3ccc(OC(F)(F)F)cc3Cl)c2)ccc1Cl [I-T3-90] | 3.6 |

Same assay, conditions: HPLC-MS, reversed-phase column (C18)

| Compound | log P |
| --- | --- |
| Cc1cc(C(F)(C(F)(F)F)C(F)(F)F)cc(C(F)(F)F)c1-n1cc(-c2cnc(C)c(C(=O)N(C)C3CC3)c2)cn1 [I-T3-118] | 3.8 |
| Cc1cc(C(F)(C(F)(F)F)C(F)(F)F)cc(C)c1-n1cc(-c2cnc(C)c(C(=O)N(C)C3CC3)c2)cn1 [I-T3-120] | 3.6 |
| Cc1ncc(-c2cnn(-c3c(Cl)cc(C(F)(C(F)(F)F)C(F)(F)F)cc3C(F)(F)F)c2)cc1C(=O)N(C)C1CC1 [I-T3-130] | 3.8 |

System: Rhipicephalus sanguineus
Test: Rhipicephalus sanguineus - in vitro contact tests with adult brown dog ticks
Assay type: in vivo
Conditions: application rate 5 μg/cm^2, after 48 h (dead or moribund)
Experimental: Rhipicephalus sanguineus—In Vitro Contact Tests with Adult Brown Dog Ticks
(§1) For the coating of the test tubes, 9 mg of active ingredient are first dissolved in 1 ml of acetone p.a. and then diluted to the desired concentration with acetone p.a. 250 μl of the solution are distributed homogeneously on the inner walls and base of a 25 ml test tube by turning and rocking on an orbital shaker (rocking rotation at 30 rpm for 2 h). With 900 ppm active ingredient solution and internal surface 44.7 cm^2, given homogeneous distribution, an area-based dose of 5 μg/cm^2 is achieved.
After the solvent has evaporated off, the tubes are populated with 5-10 adult dog ticks (Rhipicephalus sanguineus), sealed with a perforated plastic lid and incubated in a horizontal position in the dark at room temperature and ambient humidity. After 48 h, efficacy is determined. To this end, the ticks are knocked to the floor of the tube and incubated on a hotplate at 45-50° C. for not more than 5 min. Ticks which remain motionless on the floor or move in such an uncoordinated manner that they are unable to deliberately avoid the heat by climbing upwards are considered to be dead or moribund.
An efficacy of 100% means that all the ticks were dead or moribund. 0% efficacy means that none of the ticks had been harmed.

| Compound | efficacy [%] |
| --- | --- |
| O=C(NC1CC1)c1cc(-c2cnn(-c3c(Cl)cc(OC(F)(F)F)cc3Cl)c2)ccc1Cl [I-T3-88] | 80 |
| O=C(NC1CC1)c1cc(-c2cnn(-c3ccc(OC(F)(F)F)cc3Cl)c2)ccc1Cl [I-T3-90] | 100 |

System: Ctenocephalides felis
Test: Ctenocephalides felis - in vitro contact tests with adult cat fleas
Assay type: in vivo
Conditions: application rate 5 μg/cm^2 (=500 g/ha), after 48 h (dead or moribund)
Experimental: Ctenocephalides felis—In Vitro Contact Tests with Adult Cat Fleas
as §1, with “surface area” for “surface”
After the solvent has evaporated off, the tubes are populated with 5-10 adult cat fleas (Ctenocephalides felis), sealed with a perforated plastic lid and incubated in a horizontal position at room temperature and ambient humidity. After 48 h, efficacy is determined. To this end, the test tubes are stood upright and the fleas are knocked to the base of the tube. Fleas which remain motionless at the base or move in an uncoordinated manner are considered to be dead or moribund.
100% efficacy means that all the fleas were dead or moribund. 0% efficacy means that no fleas were harmed.

| Compound | efficacy [%] |
| --- | --- |
| O=C(NC1CC1)c1cc(-c2cnn(-c3c(Cl)cc(OC(F)(F)F)cc3Cl)c2)ccc1Cl [I-T3-88] | 100 |
| Cc1cc(C(F)(C(F)(F)F)C(F)(F)F)cc(C(F)(F)F)c1-n1cc(-c2cnc(C)c(C(=O)N(C)C3CC3)c2)cn1 [I-T3-118] | 100 |
| Cc1cc(C(F)(C(F)(F)F)C(F)(F)F)cc(C)c1-n1cc(-c2cnc(C)c(C(=O)N(C)C3CC3)c2)cn1 [I-T3-120] | 100 |
| Cc1ncc(-c2cnn(-c3c(Cl)cc(C(F)(C(F)(F)F)C(F)(F)F)cc3C(F)(F)F)c2)cc1C(=O)N(C)C1CC1 [I-T3-130] | 100 |

System: Boophilus microplus
Test: Boophilus microplus - injection test
Assay type: in vivo
Conditions: application rate 20 μg/animal; injected into engorged adult female ticks; laying of fertile eggs, after 7 days
Summary of the method: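 Read-out is % efficacy from fertile egg laying at 7 days: 100% means no tick laid fertile eggs, 0% means all eggs fertile. Each of 5 engorged adult females received 1 μl of DMSO test solution injected abdominally.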

| Compound | efficacy [%] |
| --- | --- |
| O=C(NC1CC1)c1cc(-c2cnn(-c3c(Cl)cc(OC(F)(F)F)cc3Cl)c2)ccc1Cl [I-T3-88] | 100 |
| O=C(NC1CC1)c1cc(-c2cnn(-c3ccc(OC(F)(F)F)cc3Cl)c2)ccc1Cl [I-T3-90] | 100 |
| Cc1cc(C(F)(C(F)(F)F)C(F)(F)F)cc(C(F)(F)F)c1-n1cc(-c2cnc(C)c(C(=O)N(C)C3CC3)c2)cn1 [I-T3-118] | 100 |
| Cc1cc(C(F)(C(F)(F)F)C(F)(F)F)cc(C)c1-n1cc(-c2cnc(C)c(C(=O)N(C)C3CC3)c2)cn1 [I-T3-120] | 100 |
| Cc1ncc(-c2cnn(-c3c(Cl)cc(C(F)(C(F)(F)F)C(F)(F)F)cc3C(F)(F)F)c2)cc1C(=O)N(C)C1CC1 [I-T3-130] | 100 |

System: Boophilus microplus Parkhurst strain, SP-resistant
Test: Boophilus microplus - dip test
Assay type: in vivo
Conditions: application rate 100 ppm; dip of engorged adult female ticks; laying of fertile eggs, after 7 days
Experimental: Boophilus microplus—Dip Test
Test animals: cattle ticks (Boophilus microplus) Parkhurst strain, SP-resistant
(§2) Solvent: dimethyl sulphoxide
10 mg of active ingredient are dissolved in 0.5 ml of dimethyl sulphoxide. For the purpose of producing a suitable formulation, the active ingredient solution is diluted with water to the concentration desired in each case.
This active ingredient formulation is pipetted into tubes. 8-10 adult engorged female cattle ticks (Boophilus microplus) are transferred into a further tube with holes. The tube is immersed into the active ingredient formulation, and all the ticks are completely wetted. After the liquid has run out, the ticks are transferred on filter discs into plastic dishes and stored in a climate-controlled room.
Efficacy is assessed after 7 days by laying of fertile eggs. Eggs which are not visibly fertile are stored in a climate-controlled cabinet until the larvae hatch after about 42 days. An efficacy of 100% means that none of the ticks has laid any fertile eggs; 0% means that all the eggs are fertile.

| Compound | efficacy [%] |
| --- | --- |
| Cc1cc(C(F)(C(F)(F)F)C(F)(F)F)cc(C(F)(F)F)c1-n1cc(-c2cnc(C)c(C(=O)N(C)C3CC3)c2)cn1 [I-T3-118] | 100 |
| Cc1cc(C(F)(C(F)(F)F)C(F)(F)F)cc(C)c1-n1cc(-c2cnc(C)c(C(=O)N(C)C3CC3)c2)cn1 [I-T3-120] | 100 |
| Cc1ncc(-c2cnn(-c3c(Cl)cc(C(F)(C(F)(F)F)C(F)(F)F)cc3C(F)(F)F)c2)cc1C(=O)N(C)C1CC1 [I-T3-130] | 100 |

System: Ctenocephalides felis
Test: Ctenocephalides felis - oral test
Assay type: in vivo
Conditions: application rate 100 ppm in citrated cattle blood; adult fleas; kill after 2 days
Summary of the method: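 Percentage mortality recorded at 2 days, where 0% means no fleas killed. Compound dissolved in DMSO and diluted in citrated cattle blood, which roughly 20 unfed adult C. felis imbibe via a parafilm membrane.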

| Compound | efficacy [%] |
| --- | --- |
| O=C(NC1CC1)c1cc(-c2cnn(-c3c(Cl)cc(OC(F)(F)F)cc3Cl)c2)ccc1Cl [I-T3-88] | 100 |
| O=C(NC1CC1)c1cc(-c2cnn(-c3ccc(OC(F)(F)F)cc3Cl)c2)ccc1Cl [I-T3-90] | 100 |
| Cc1cc(C(F)(C(F)(F)F)C(F)(F)F)cc(C(F)(F)F)c1-n1cc(-c2cnc(C)c(C(=O)N(C)C3CC3)c2)cn1 [I-T3-118] | 100 |
| Cc1cc(C(F)(C(F)(F)F)C(F)(F)F)cc(C)c1-n1cc(-c2cnc(C)c(C(=O)N(C)C3CC3)c2)cn1 [I-T3-120] | 100 |
| Cc1ncc(-c2cnn(-c3c(Cl)cc(C(F)(C(F)(F)F)C(F)(F)F)cc3C(F)(F)F)c2)cc1C(=O)N(C)C1CC1 [I-T3-130] | 100 |

System: Lucilia cuprina
Test: Lucilia cuprina test
Assay type: in vivo
Conditions: application rate 100 ppm; L1 larvae in minced horsemeat; kill after 2 days
Summary of the method: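 Mortality (%) of first-instar blowfly larvae, about 20 per vessel, recorded 2 days after exposure to compound-treated minced horsemeat. Compound dissolved in dimethyl sulphoxide, then water-diluted to the desired concentration.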

| Compound | efficacy [%] |
| --- | --- |
| O=C(NC1CC1)c1cc(-c2cnn(-c3c(Cl)cc(OC(F)(F)F)cc3Cl)c2)ccc1Cl [I-T3-88] | 100 |
| O=C(NC1CC1)c1cc(-c2cnn(-c3ccc(OC(F)(F)F)cc3Cl)c2)ccc1Cl [I-T3-90] | 100 |
| Cc1cc(C(F)(C(F)(F)F)C(F)(F)F)cc(C(F)(F)F)c1-n1cc(-c2cnc(C)c(C(=O)N(C)C3CC3)c2)cn1 [I-T3-118] | 100 |
| Cc1cc(C(F)(C(F)(F)F)C(F)(F)F)cc(C)c1-n1cc(-c2cnc(C)c(C(=O)N(C)C3CC3)c2)cn1 [I-T3-120] | 100 |
| Cc1ncc(-c2cnn(-c3c(Cl)cc(C(F)(C(F)(F)F)C(F)(F)F)cc3C(F)(F)F)c2)cc1C(=O)N(C)C1CC1 [I-T3-130] | 100 |

System: Musca domestica
Test: Musca domestica test
Assay type: in vivo
Conditions: application rate 100 ppm; adult houseflies; kill after 2 days
Experimental: as §2
To produce an appropriate active ingredient formulation, 10 mg of active ingredient are mixed with 0.5 ml of dimethyl sulphoxide, and the concentrate is diluted with water to the desired concentration.
Vessels containing a sponge treated with sugar solution and the active ingredient formulation of the desired concentration are populated with 10 adult houseflies (Musca domestica).
After 2 days, the kill in % is determined. 100% means that all of the flies have been killed; 0% means that none of the flies have been killed.

| Compound | efficacy [%] |
| --- | --- |
| O=C(NC1CC1)c1cc(-c2cnn(-c3c(Cl)cc(OC(F)(F)F)cc3Cl)c2)ccc1Cl [I-T3-88] | 80 |
| O=C(NC1CC1)c1cc(-c2cnn(-c3ccc(OC(F)(F)F)cc3Cl)c2)ccc1Cl [I-T3-90] | 90 |
| Cc1cc(C(F)(C(F)(F)F)C(F)(F)F)cc(C(F)(F)F)c1-n1cc(-c2cnc(C)c(C(=O)N(C)C3CC3)c2)cn1 [I-T3-118] | 100 |
| Cc1cc(C(F)(C(F)(F)F)C(F)(F)F)cc(C)c1-n1cc(-c2cnc(C)c(C(=O)N(C)C3CC3)c2)cn1 [I-T3-120] | 100 |
| Cc1ncc(-c2cnn(-c3c(Cl)cc(C(F)(C(F)(F)F)C(F)(F)F)cc3C(F)(F)F)c2)cc1C(=O)N(C)C1CC1 [I-T3-130] | 100 |
